From article PMC6261607, “Novel high–throughput myofibroblast assays identify agonists with therapeutic potential in pulmonary fibrosis that act via EP2 and EP4 receptors” (PLoS ONE, 2018)
pIC50: −log10 of the molar value. Counter-ions that a name gives are not always drawn. Like-named read-outs stand apart in the source and are kept apart here.

Experiments:
[1] = system: normal human lung fibroblasts (NHLF); test: Nuclear count in the HCA, standard assay; format: cell-based; conditions: read-out: Nuclear count IC50
Method: (§1) The plate was washed 3 times with starvation medium, e.g. fibroblast basal medium (FBM, Lonza) supplemented with 0.1% faf BSA, 100 units / ml of penicillin and 100 μg / ml of streptomycin and 250 ng / ml amphotericin B, and then starved for 24 h in 30 μl volume. NHLF were differentiated into myofibroblasts by incubation with 5 ng / ml TGF–β1 (from a stock of 20 μg / ml in 4 mM HCl, 1 mg / ml BSA) for 48 h. Compounds were prepared as 5x stocks in starvation medium and added to the starved cells to a final 1x concentration concomitant with TGF–β1 addition. The final DMSO concentration in the assay was 0.6% in all wells. 48 h after TGF–β1 addition, the medium was removed and the cells were fixed in methanol for 10 min at room temperature (RT). After fixation, cells were washed 3 times with 1 x PBS and either stored at 4°C for up to 3 days or further processed. […] Images were acquired on the Opera Phenix confocal high–content screening system (Perkin Elmer) using the 20–x water immersion lens.
(§2) DAPI stained nuclei were used to identify cells. α–SMA and FN regions were then identified and mapped to the corresponding nuclei for background correction, cell segmentation and cell feature computation to identify, classify and weigh over 400 features per cell. The computed features (S1 Table) comprise, but are not limited to, granularity, intensity, texture, area, shape and solidity of a cell in both α–SMA–and FN–expressing regions. The 0% compound effect (5 ng / ml TGF–β1) and the 100% compound effect (0 ng / ml TGF–β1) controls, were used to train and validate a support vector machine (SVM), a supervised learning model with associated learning algorithm that, once successfully validated, was applied to every cell in every well of the assayed microtiter plate. The SVM allowed autonomous weighting and classification of the characteristics and thus enabled the classifier to decide which characteristics were most relevant for the differentiation of the cell types. […] The classification of each cell was aggregated to a cell type ratio per well, represented as the computed percentage effect value per well indicative of the degree of myofibroblast differentiation. E.g. 100% equals complete myofibroblast differentiation, 0% indicates a pure fibroblast population without any signs of differentiation.

NHLF cells = test: RealTime–Glo MT viability assay
Method: The effect of compounds on cell viability was assessed by quantifying the relative metabolic activity of cells using the non–lytic luminescence–based RealTime–Glo™ MT cell viability assay (Promega) according to the manufacturer’s instructions.

[2] = system: normal human lung fibroblasts (NHLF); test: Phenotypic high-content assay (HCA) of TGF–β1–induced fibroblast–to–myofibroblast differentiation; format: cell-based; conditions: for pIC50: read-out: HCA IC50; for inhibition at 10 µM: read-out: Effect HCA at 10 µM [% inhibition]
Method: as §1, §2

[3] = Homo sapiens, Fibroblast, 48 h, standard HCA, NHLF, 5 ng/ml TGF–β1, 48 h
[4] = Homo sapiens, Fibroblast, 48 h, NHLF, 5 ng/ml TGF–β1 for 48 h, compound added with TGF–β1, mean ± SD
[5] = Homo sapiens, Fibroblast, 10 µM compound, 5 ng/ml TGF–β1, 48 h
[6] = standard HCA, NHLF, 5 ng/ml TGF–β1, 48 h
[7] = 10 µM compound, 5 ng/ml TGF–β1, 48 h
[8] = NHLF, 5 ng/ml TGF–β1 for 48 h, compound added with TGF–β1, mean ± SD
[9] = Homo sapiens, Fibroblast, NHLF, 5 ng/ml TGF–β1 for 48 h, compound added with TGF–β1, mean ± SD

SMILES | pIC50 [1, 3] | Effect on viability at 10 µM [% reduction] (NHLF cells; 10 µM compound) | pIC50 [2, 4] | inhibition at 10 µM [2, 5] | Effect on viability at 10 µM [% reduction] (NHLF cells; human, 10 µM) | also measured
COCCOC(=O)C1=C(C)NC(C)=C(C(=O)OC/C=C/c2ccccc2)C1c1cccc([N+](=O)[O-])c1 (stereo not drawn) [Cilnidipine] | < 4.60 | 15 % reduction | 5.09 | 92% |  | 
COc1cccc2c1C(=O)c1c(O)c3c(c(O)c1C2=O)C[C@@](O)(C(C)=O)C[C@@H]3O[C@H]1C[C@H](N)[C@H](O)[C@H](C)O1 [Daunorubicin hydrochloride] |  |  |  |  | 14 % reduction | inhibition at 10 µM ([2]; Homo sapiens, Fibroblast, 48 h): 73%; pIC50 ([2]; Homo sapiens, Fibroblast, 48 h): 6.57
CCSc1ccc2c(c1)N(CCCN1CCN(C)CC1)c1ccccc1S2.O=C(O)CC(O)C(=O)O.O=C(O)CC(O)C(=O)O [Thiethylperazine dimalate] |  |  |  |  |  | pIC50 [1, 6]: 4.89; Effect on viability at 10 µM [% reduction] (NHLF cells): 34 % reduction; Effect HCA at 10 µM [% inhibition] [2, 7]: 76 % inhibition; pIC50 [2, 8]: 5.07
CCCCC(=O)O[C@H]1CC[C@H]2[C@@H]3CCc4cc(O)ccc4[C@H]3CC[C@]12C [Estradiol Valerate] | 4.96 |  | 5.01 | 66% | 65 % reduction | 
COc1ccc(CCN2CCC(Nc3nc4ccccc4n3Cc3ccc(F)cc3)CC2)cc1 [Astemizole] | 5.08 |  |  | 105% | 49 % reduction | 
Cc1nc(Nc2ncc(C(=O)Nc3c(C)cccc3Cl)s2)cc(N2CCN(CCO)CC2)n1 [Dasatinib (BMS–354825), Dasatinib] | < 4.60 |  | 5.99 | 89% | –10 % reduction | 
Oc1c(Cl)cc(Cl)c2cccnc12 [Chloroxine] | < 4.60 |  | 5.23 | 80% | 14 % reduction | 
Cl.Cl.Fc1ccc(C(OCCN2CCN(CCCc3ccccc3)CC2)c2ccc(F)cc2)cc1 [GBR 12909 dihydrochloride] |  |  |  |  |  | Effect on viability at 10 µM [% reduction] (NHLF cells): 13 % reduction; Effect HCA at 10 µM [% inhibition] [2, 7]: 56 % inhibition; pIC50 [2, 8]: 5.00
CC(C)(C)c1nc(-c2cccc(NS(=O)(=O)c3c(F)cccc3F)c2F)c(-c2ccnc(N)n2)s1 [Dabrafenib (GSK2118436), Dabrafenib] | < 4.60 | 9 % reduction | 5.54 | 56% |  | 
O=C(CCCCCCC(=O)Nc1ccccc1)NO [Vorinostat] |  | 24 % reduction |  |  |  | 
C=CC(=O)N1CCC[C@@H](n2nc(-c3ccc(Oc4ccccc4)cc3)c3c(N)ncnc32)C1 [PCI–32765 (Ibrutinib), Ibrutinib] |  |  |  |  | 22 % reduction | 
[H]/N=C(\N/C(=N/[H])NCCCCCCNC(=N)NC(=N)Nc1ccc(Cl)cc1)Nc1ccc(Cl)cc1 [Chlorhexidine] |  |  | 5.24 | 80% | 24 % reduction | 
CC(C)(C)CC(C)(C)c1ccc(OCCOCC[N+](C)(C)Cc2ccccc2)cc1 [Benzethonium chloride] |  | 72 % reduction |  |  |  | 
Cc1cc(C#N)cc(C)c1Oc1nc(Nc2ccc(C#N)cc2)nc(N)c1Br [Etravirine (TMC125), Etravirine] | < 4.60 | 29 % reduction | 5.41 | 100% |  | 
CC[C@@]1(O)C(=O)OCc2c1cc1n(c2=O)Cc2cc3ccccc3nc2-1 [Camptothecine (S+)] |  | 5 % reduction |  |  |  | pIC50 [1, 6]: < 4.60; Effect HCA at 10 µM [% inhibition] [2, 7]: 105 % inhibition; pIC50 [2, 8]: 7.39
C[C@@H](Oc1cc(-c2cnn(C3CCNCC3)c2)cnc1N)c1c(Cl)ccc(F)c1Cl [Crizotinib (PF–02341066), Crizotinib] | 4.80 | 66 % reduction | 5.82 | 63% |  | 
COc1cccc2c1C(=O)c1c(O)c3c(c(O)c1C2=O)C[C@@](O)(C(=O)CO)C[C@@H]3O[C@H]1C[C@H](N)[C@H](O)[C@H](C)O1 [Doxorubicin hydrochloride] | < 4.60 |  | 6.35 | 64% | 20 % reduction | 
COc1cccc2c1C(=O)c1c(O)c3c(c(O)c1C2=O)C[C@@](O)(C(=O)CO)C[C@@H]3O[C@H]1C[C@H](N)[C@@H](O)[C@H](C)O1 [Epirubicin hydrochloride] |  |  | 5.97 | 93% | 28 % reduction | 
C[C@@H]1C[C@@H]([C@H](O)CC2CC(=O)NC(=O)C2)C(=O)[C@@H](C)C1 [Cycloheximide] |  | 27 % reduction |  |  |  | pIC50 ([1]; Homo sapiens, Fibroblast, 48 h): < 4.60; inhibition at 10 µM ([2]; Homo sapiens, Fibroblast, 48 h): 91%; pIC50 ([2]; Homo sapiens, Fibroblast, 48 h): 6.96
Nc1ncn(C2OC(CO)C(O)C2O)c(=O)n1 (stereo not drawn) [Azacytidine–5] |  |  |  |  |  | pIC50 [1, 6]: < 4.60; Effect on viability at 10 µM [% reduction] (NHLF cells): –4 % reduction; Effect HCA at 10 µM [% inhibition] [2, 7]: 97 % inhibition; pIC50 [2, 8]: 5.49
C[C@H]1O[C@@H](O[C@H]2[C@@H](O)C[C@H](O[C@H]3[C@@H](O)C[C@H](O[C@H]4CC[C@@]5(C)[C@H](CC[C@@H]6[C@@H]5C[C@@H](O)[C@]5(C)[C@@H](C7=CC(=O)OC7)CC[C@]65O)C4)O[C@@H]3C)O[C@@H]2C)C[C@H](O)[C@@H]1O [Digoxin] |  |  |  |  | 19 % reduction | pIC50 ([1]; Homo sapiens, Fibroblast, 48 h): < 4.60; inhibition at 10 µM ([2]; Homo sapiens, Fibroblast, 48 h): 87%; pIC50 ([2]; Homo sapiens, Fibroblast, 48 h): 8.00
C[C@]12CC[C@H](O)C[C@H]1CC[C@@H]1[C@@H]2CC[C@]2(C)[C@@H](C3=CC(=O)OC3)CC[C@]12O [Digitoxigenin] |  | 22 % reduction |  |  |  | pIC50 ([1]; Homo sapiens, Fibroblast, 48 h): < 4.60; inhibition at 10 µM ([2]; Homo sapiens, Fibroblast, 48 h): 93%; pIC50 ([2]; Homo sapiens, Fibroblast, 48 h): 7.41
CC[C@H]1CN2CCc3cc(OC)c(OC)cc3[C@@H]2C[C@@H]1C[C@H]1NCCc2cc(OC)c(OC)cc21 [Emetine] | < 4.60 | 25 % reduction | 7.15 | 100% |  | 
CC(=O)O[C@H]1C[C@H](O[C@H]2[C@@H](O)C[C@H](O[C@H]3[C@@H](O)C[C@H](O[C@H]4CC[C@@]5(C)[C@H](CC[C@@H]6[C@@H]5C[C@@H](O)[C@]5(C)[C@@H](C7=CC(=O)OC7)CC[C@]65O)C4)O[C@@H]3C)O[C@@H]2C)O[C@H](C)[C@H]1O[C@@H]1O[C@H](CO)[C@@H](O)[C@H](O)[C@H]1O [Lanatoside C] |  |  |  | 100% | 19 % reduction | pIC50 ([1]; Homo sapiens, Fibroblast, standard HCA, NHLF, 5 ng/ml TGF–β1, 48 h): < 4.60; pIC50 [2, 9]: 7.46
CCOc1ccc2nc3cc(N)ccc3c(N)c2c1 [Ethacridine lactate monohydrate] | < 4.60 | –9 % reduction | 5.12 | 73% |  | 
Cc1c(-c2ccc(O)cc2)n(Cc2ccc(OCCN3CCCCCC3)cc2)c2ccc(O)cc12.Cl [Bazedoxifene HCl] |  |  |  |  |  | Effect on viability at 10 µM [% reduction] (NHLF cells): 55 % reduction
CC(C)C[C@H](NC(=O)[C@H](CCc1ccccc1)NC(=O)CN1CCOCC1)C(=O)N[C@@H](Cc1ccccc1)C(=O)N[C@@H](CC(C)C)C(=O)[C@@]1(C)CO1 [Carfilzomib (PR–171), Carfilzomib] |  |  | 8.40 | 100% | 52 % reduction | 
Oc1c(Cl)cc(Cl)c(Cl)c1Cc1c(O)c(Cl)cc(Cl)c1Cl [Hexachlorophene] |  |  |  |  |  | pIC50 ([1]; Homo sapiens, Fibroblast, 48 h): < 4.60; inhibition at 10 µM ([2]; Homo sapiens, Fibroblast, 48 h): 93%; pIC50 ([2]; Homo sapiens, Fibroblast, 48 h): 5.17
O=C1c2c(O)ccc(O)c2C(=O)c2c(NCCNCCO)ccc(NCCNCCO)c21 [Mitoxantrone dihydrochloride] |  |  | 6.21 | 101% | 31 % reduction | 
CN[C@@H]1C[C@@H](c2ccc(Cl)c(Cl)c2)c2ccccc21 [Indatraline hydrochloride] |  | 20 % reduction |  | 67% |  | pIC50 [2, 9]: 5.09
